# pIC50: −log10 of the molar value.
# Tests used:
# Shigella flexneri = assay: Antibacterial activity against Shigella flexneri HNCMB 20018 assessed as minimum inhibitory concentration required for >=90% inhibition of bacterial growth in presence of phenylalanine-arginine beta-naphthylamide by CLSI protocol based broth microdilution assay; assay type: functional
# Escherichia coli [1] = assay: Antibacterial activity against outer membrane impaired Escherichia coli JD17464 harboring lpxC mutant assessed as bacterial growth inhibition at 50 uM incubated for 24 hrs by CLSI protocol based broth microdilution assay relative to control; assay type: functional
# Klebsiella pneumoniae [2] = assay: Antibacterial activity against wild type Klebsiella pneumoniae ATCC 10031 harboring GyrA S83Y mutant assessed as minimum inhibitory concentration required for >=90% inhibition of bacterial growth in presence of 10 ug/ml phenylalanine-arginine beta-naphthamide; assay type: functional
# Enterococcus faecium [3] = assay: Antibacterial activity against vancomycin-resistant Enterococcus faecium ATCC 700221 assessed as minimum inhibitory concentration required for >=90% inhibition of bacterial growth by CLSI protocol based broth microdilution assay; assay type: functional
# Staphylococcus aureus [4] = assay: Antibacterial activity against […] Staphylococcus aureus ATCC 25923 assessed as minimum inhibitory concentration required for >=90% inhibition of bacterial growth by CLSI protocol based broth microdilution assay; assay type: functional
# Escherichia coli [5] = assay: Antibacterial activity against Escherichia coli MG1655 harboring GyrB R136C mutant assessed as minimum inhibitory concentration required for >=90% inhibition of bacterial growth in presence of 50 ug/ml phenylalanine-arginine beta-naphthylamide; assay type: functional
# Klebsiella pneumoniae [6] = assay: Antibacterial activity against wild type Klebsiella pneumoniae ATCC 10031 harboring GyrA S83L mutant assessed as minimum inhibitory concentration required for >=90% inhibition of bacterial growth in presence of 10 ug/ml phenylalanine-arginine beta-naphthamide; assay type: functional
# Klebsiella pneumoniae [7] = assay: Antibacterial activity against Klebsiella pneumoniae ATCC 700603 assessed as bacterial growth inhibition at 50 uM incubated for 24 hrs by CLSI protocol based broth microdilution assay relative to control; assay type: functional
# Enterococcus faecium [8] = assay: Antibacterial activity against Enterococcus faecium ATCC 35667 assessed as minimum inhibitory concentration required for >=90% inhibition of bacterial growth by CLSI protocol based broth microdilution assay; assay type: functional
# DNA gyrase [9] = molecular target: T1, DNA gyrase (Escherichia coli, UniProt P0AES4+P0AES6); assay: Inhibition of Escherichia coli DNA gyrase using biotinylated oligonucleotide as substrate incubated for 30 mins in presence of ATP by fluorescence-based microplate reader assay; assay type: protein-complex assay
# Pseudomonas aeruginosa = assay: Antibacterial activity against Pseudomonas aeruginosa ATCC 27853 assessed as bacterial growth inhibition at 50 uM incubated for 24 hrs by CLSI protocol based broth microdilution assay relative to control; assay type: functional
# Escherichia coli [10] = assay: Antibacterial activity against Escherichia coli MG1655 harboring […]/D87N and ParC S80I mutants assessed as minimum inhibitory concentration required for >=90% inhibition of bacterial growth in presence of 50 ug/ml phenylalanine-arginine beta-naphthylamide; assay type: functional
# Klebsiella aerogenes = assay: Antibacterial activity against Enterobacter aerogenes ATCC 13408 assessed as bacterial growth inhibition at 50 uM incubated for 24 hrs by CLSI protocol based broth microdilution assay relative to control; assay type: functional
# Klebsiella pneumoniae [11] = assay: Antibacterial activity against wild type Klebsiella pneumoniae ATCC 10031 harboring GyrA S83F/D87G mutant assessed as minimum inhibitory concentration required for >=90% inhibition of bacterial growth in presence of 10 ug/ml phenylalanine-arginine beta-naphthamide; assay type: functional
# [12] = molecular target: Topoisomerase IV (Staphylococcus aureus) (UniProt P0C1U9+P0C1S7); assay: Inhibition of Staphylococcus aureus DNA topoisomerase 4 assessed as residual activity at 1 uM using biotinylated oligonucleotide as substrate incubated for 30 mins in presence of ATP by fluorescence-based microplate reader assay relative to control; assay type: protein-complex assay
# [13] = molecular target: DNA gyrase (Staphylococcus aureus) (UniProt P0A0K8+P20831); assay: Inhibition of Staphylococcus aureus DNA gyrase assessed as residual activity at 1 uM using biotinylated oligonucleotide as substrate incubated for 30 mins in presence of ATP by fluorescence-based microplate reader assay relative to control; assay type: protein-complex assay
# Chain of DNA gyrase (Staphylococcus aureus) (P0A0K8 2-644 limits assumed): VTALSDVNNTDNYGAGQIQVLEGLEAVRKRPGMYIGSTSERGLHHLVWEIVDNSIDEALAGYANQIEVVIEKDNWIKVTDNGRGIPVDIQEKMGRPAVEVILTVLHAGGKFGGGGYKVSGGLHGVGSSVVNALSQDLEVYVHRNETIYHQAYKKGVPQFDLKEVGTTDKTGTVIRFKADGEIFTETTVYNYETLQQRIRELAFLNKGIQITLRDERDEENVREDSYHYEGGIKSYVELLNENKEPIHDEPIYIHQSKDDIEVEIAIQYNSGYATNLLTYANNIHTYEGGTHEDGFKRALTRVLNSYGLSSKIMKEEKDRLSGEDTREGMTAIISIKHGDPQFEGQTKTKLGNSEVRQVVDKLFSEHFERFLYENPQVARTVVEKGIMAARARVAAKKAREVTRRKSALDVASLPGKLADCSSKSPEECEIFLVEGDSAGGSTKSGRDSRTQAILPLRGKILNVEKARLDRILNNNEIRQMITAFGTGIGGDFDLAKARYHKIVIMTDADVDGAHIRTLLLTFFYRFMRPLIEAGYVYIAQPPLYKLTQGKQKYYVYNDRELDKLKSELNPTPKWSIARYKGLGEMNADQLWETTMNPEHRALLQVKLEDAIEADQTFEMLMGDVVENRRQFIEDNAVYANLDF
# Chain of DNA gyrase (Staphylococcus aureus) (P20831 whole entry partner): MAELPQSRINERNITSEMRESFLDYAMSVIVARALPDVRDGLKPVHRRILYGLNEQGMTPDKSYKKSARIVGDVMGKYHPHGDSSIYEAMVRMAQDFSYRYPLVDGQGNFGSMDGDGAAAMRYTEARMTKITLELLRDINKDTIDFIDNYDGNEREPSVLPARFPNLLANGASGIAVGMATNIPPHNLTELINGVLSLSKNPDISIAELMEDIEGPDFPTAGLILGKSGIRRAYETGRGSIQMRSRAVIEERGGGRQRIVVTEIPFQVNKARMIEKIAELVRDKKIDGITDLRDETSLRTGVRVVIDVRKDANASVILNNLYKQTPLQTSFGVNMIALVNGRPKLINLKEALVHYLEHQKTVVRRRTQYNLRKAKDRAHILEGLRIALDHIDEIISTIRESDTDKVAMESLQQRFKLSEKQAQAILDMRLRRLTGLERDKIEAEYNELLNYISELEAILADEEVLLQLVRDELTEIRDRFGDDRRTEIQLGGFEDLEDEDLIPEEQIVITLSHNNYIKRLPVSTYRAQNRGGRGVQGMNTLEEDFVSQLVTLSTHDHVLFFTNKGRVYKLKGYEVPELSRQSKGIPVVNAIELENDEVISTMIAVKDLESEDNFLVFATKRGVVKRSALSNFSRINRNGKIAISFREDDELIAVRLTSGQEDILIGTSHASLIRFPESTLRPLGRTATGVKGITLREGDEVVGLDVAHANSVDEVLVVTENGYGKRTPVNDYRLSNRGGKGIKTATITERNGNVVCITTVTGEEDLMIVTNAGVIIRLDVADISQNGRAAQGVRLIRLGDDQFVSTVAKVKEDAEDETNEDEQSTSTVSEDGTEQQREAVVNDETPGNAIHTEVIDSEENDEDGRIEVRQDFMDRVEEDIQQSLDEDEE
# [14] = Inhibition of Escherichia coli DNA topoisomerase 4 assessed as residual activity at 1 uM using biotinylated oligonucleotide as substrate incubated for 30 mins in presence of ATP by fluorescence-based microplate reader assay relative to control
# Escherichia coli [15] = assay: Antibacterial activity against Escherichia coli MG1655 harboring […] mutant assessed as minimum inhibitory concentration required for >=90% inhibition of bacterial growth in presence of 50 ug/ml phenylalanine-arginine beta-naphthylamide; assay type: functional
# Escherichia coli [16] = assay: Antibacterial activity against Escherichia coli ATCC 25922 assessed as bacterial growth inhibition at 50 uM incubated for 24 hrs by CLSI protocol based broth microdilution assay relative to control; assay type: functional
# Klebsiella pneumoniae [17] = assay: Antibacterial activity against wild type Klebsiella pneumoniae ATCC 10031 harboring GyrA S83F mutant assessed as minimum inhibitory concentration required for >=90% inhibition of bacterial growth in presence of 10 ug/ml phenylalanine-arginine beta-naphthamide; assay type: functional
# Klebsiella pneumoniae [18] = assay: Antibacterial activity against wild type Klebsiella pneumoniae ATCC 10031 harboring GyrA S83F/D87G and ParC S80I/E84G mutants assessed as minimum inhibitory concentration required for >=90% inhibition of bacterial growth in presence of 10 ug/ml phenylalanine-arginine beta-naphthamide; assay type: functional
# Enterococcus faecalis [19] = assay: Antibacterial activity against Enterococcus faecalis ATCC 29212 assessed as bacterial growth inhibition at 50 uM incubated for 24 hrs by CLSI protocol based broth microdilution assay relative to control; assay type: functional
# Salmonella enterica = assay: Antibacterial activity against Salmonella enterica LT2 assessed as minimum inhibitory concentration required for >=90% inhibition of bacterial growth in presence of phenylalanine-arginine beta-naphthylamide by CLSI protocol based broth microdilution assay; assay type: functional
# DNA gyrase [20] = molecular target: T1, DNA gyrase; assay: Inhibition of Escherichia coli DNA gyrase assessed as conversion of NADH to NAD+ by ATPase assay; assay type: protein-complex assay
# Escherichia coli [21] = assay: Antibacterial activity against efflux pump d effect ive Escherichia coli JW5503 harbouring tolC mutant assessed as bacterial growth inhibition at 50 uM incubated for 24 hrs by CLSI protocol based broth microdilution assay relative to control; assay type: functional
# Staphylococcus aureus [22] = assay: Antibacterial activity against methicillin-resistant Staphylococcus aureus ATCC 43300 assessed as minimum inhibitory concentration required for >=90% inhibition of bacterial growth in presence of 50% inactivated human serum by CLSI protocol based broth microdilution assay; assay type: functional
# Escherichia coli [23] = assay: Antibacterial activity against Escherichia coli ATCC 25922 assessed as minimum inhibitory concentration required for >=90% inhibition of bacterial growth by CLSI protocol based broth microdilution assay; assay type: functional
# Enterococcus faecalis [24] = assay: Antibacterial activity against Enterococcus faecalis ATCC 29212 assessed as minimum inhibitory concentration required for >=90% inhibition of bacterial growth by CLSI protocol based broth microdilution assay; assay type: functional
# Klebsiella pneumoniae [25] = assay: Antibacterial activity against Klebsiella pneumoniae ATCC 10031 assessed as minimum inhibitory concentration required for >=90% inhibition of bacterial growth in presence of phenylalanine-arginine beta-naphthylamide by CLSI protocol based broth microdilution assay; assay type: functional
# Escherichia coli [26] = assay: Antibacterial activity against Escherichia coli ATCC 25922 assessed as minimum inhibitory concentration required for >=90% inhibition of bacterial growth in presence of phenylalanine-arginine beta-naphthylamide by CLSI protocol based broth microdilution assay; assay type: functional
compound,measurement,setting,value
CCn1cc(C(=O)O)c(=O)c2ccc(NC(=O)c3[nH]c(C)c(Cl)c3Cl)cc21,MIC,Shigella flexneri,> 32 µM
same,inhibition at 50 µM,Escherichia coli [1],11%
same,MIC,Klebsiella pneumoniae [2],1.2 µM
same,MIC,Enterococcus faecium [3],0.72 µM
same,MIC,Staphylococcus aureus [4],2.5 µM
same,MIC,Escherichia coli [5],2.5 µM
same,MIC,Klebsiella pneumoniae [6],1.2 µM
same,inhibition at 50 µM,Klebsiella pneumoniae [7],7%
same,MIC,Enterococcus faecium [8],1.56 µM
same,pIC50,DNA gyrase [9],5.85
same,inhibition at 50 µM,Pseudomonas aeruginosa,-5%
same,MIC,Escherichia coli [10],2.5 µM
same,inhibition at 50 µM,Klebsiella aerogenes,9%
same,MIC,Klebsiella pneumoniae [11],2.5 µM
same,Activity,[12],100%
same,Activity,[13],90%
same,Activity,[14],92%
same,MIC,Escherichia coli [15],2.5 µM
same,inhibition at 50 µM,Escherichia coli [16],11%
same,MIC,Klebsiella pneumoniae [17],1.2 µM
same,MIC,Klebsiella pneumoniae [18],1.2 µM
same,inhibition at 50 µM,Enterococcus faecalis [19],99%
same,MIC,Salmonella enterica,> 32 µM
same,pIC50,DNA gyrase [20],6.00
same,inhibition at 50 µM,Escherichia coli [21],54%
same,MIC,Staphylococcus aureus [22],32 µM
same,MIC,Escherichia coli [23],> 32 µM
same,MIC,Enterococcus faecalis [24],1.56 µM
same,MIC,Klebsiella pneumoniae [25],> 32 µM
same,MIC,Escherichia coli [26],2.3 µM

# From ChEMBL document CHEMBL4665629, “An optimised series of substituted N-phenylpyrrolamides as DNA gyrase B inhibitors” (Eur J Med Chem, 2019)
